In patent publication US5852190A, “Diazepinoindoles as phosphodiesterase IV inhibitors” (Institut de Recherche Jouveinal SA, priority 1994, dated 1998):

How the values were obtained:
inflammatory cells = details: in vitro, rodents; cited from earlier work
[1] = cited from earlier work; for undesirable effects: in use
PDE IV = PDE IV inhibition (partially purified enzyme) compared with rolipram; format: biochemical; details: enzyme preparation obtained from guinea-pig trachea; same enzyme preparation for rolipram and product
Experimental: The capacity of the compounds of formula (I) of the invention to inhibit cyclic nucleotide phosphodiesterases is evaluated by measuring their IC50 (concentration of inhibitor required to inhibit enzymatic activity by 50%). In the case of PDEs IV, this value is compared with the IC50 of rolipram, a specific inhibitor of PDE IV, by the ratio of the IC50 of rolipram to the IC50 of the product to be tested, in relation to the same enzyme preparation.
The different classes of phosphodiesterases are obtained in partially purified form on a DEAE-cellulose column from guinea-pig trachea and dog aorta according to a method adapted from that of W. J. Thompson et al., 1979, Advances in Cyclic Nucleotide Research, Vol. 10: 69-92, ed. G. Brooker et al., Raven Press, New York, and of P. J. Silver et al., 1988, Eur. J. Pharmacol. 150: 85-94.
Subsequently, the measurement of the enzymatic activity of the different classes of PDE, and in particular of the PDEs IV, is carried out according to a method which is likewise adapted from that of W. J. Thompson, ibidem.
For the determination of the IC50 the enzymatic activity is measured in the presence of the inhibitor in a range of concentrations from 0.1 to 100 μM.
The following table illustrates the PDE IV-inhibitory activity in comparison with that of rolipram for an enzyme preparation obtained from guinea-pig trachea.

phosphodiesterase = details: nonspecific inhibitor; cited from earlier work
[2] = subacute oral toxicity in the rat; format: in vivo; details: 100 mg/kg/day for two weeks, 1% aqueous suspension in methyl cellulose
Excerpt: The subacute oral toxicity of Example 2V was studied in the rat.

Row | Compound | IC50 rolipram / IC50 example (PDE IV-inhibitory effect compared with rolipram) (PDE IV) | other results
1 | COc1ccc(C2CNC(=O)C2)cc1OC1CCCC1 (stereo not drawn) [Rolipram] | – | inhibition of the activity of inflammatory cells (inflammatory cells): inhibits the activity of inflammatory cells in rodents; undesirable effects [1]: nausea and vomiting
2 | COc1cc2c3c(c1)C(c1ccccc1)=N[C@@H](NC(=O)c1cc4ccccc4cn1)C(=O)N3CC2 [Example 6F, (3R)-Isoquinoline-3-carboxylic acid (9-methoxy-4-oxo-1-phenyl-3,4,6,7-tetrahydro[1,4]diazepino-[6,7,1-hi]indol-3-yl)amide] | 1.2 | –
3 | O=C(N[C@@H]1N=C(c2ccccc2)c2cccc3c2N(CC3)C1=O)c1ccc2ncccc2c1 [Example 2T, (3R)-Quinoline-6-carboxylic acid (4-oxo-1-phenyl-3,4,6,7-tetrahydro[1,4]diaze-ino[6,7,1-hi]indol-3-yl)amide] | 2.0 | –
4 | COc1cc2c3c(c1)C(c1ccccc1)=N[C@@H](NC(=O)c1ccc4ncccc4c1)C(=O)N3CC2 [Example 6E, (3R) -Quinoline-6-carboxylic acid (9-methoxy-4-oxo-1-phenyl-3,4,6,7-tetrahydro[1,4]diazepino[6,7,1-hi]indol-3-yl)amide] | 1.9 | –
5 | O=C(N[C@@H]1N=C(c2ccccc2)c2cccc3c2N(CC3)C1=O)c1ccccn1 [Example 2P, (3R)-Pyridine-2-carboxylic acid (4-oxo-1-phenyl-3,4,6,7-tetrahydro[1,4]diazepino[6,7,1-hi]indol-3-yl)amide] | 1.5 | –
6 | COc1ccc(Cl)cc1C(=O)N[C@@H]1N=C(c2ccccc2)c2cccc3c2N(CC3)C1=O [Example 2N, (3R) -2-Methoxy-5-chloro-N-(4-oxo-1-phenyl-3,4,6,7-tetrahydro[1,4]diazepino[6,7,1-hi]indol-3-yl)-benzamide] | 2.5 | –
7 | O=C(N[C@@H]1N=C(c2ccccc2)c2cccc3c2N(CC3)C1=O)c1ccc(F)cc1 [Example 2C, (3R)-4-Fluoro-N-(4-oxo-1-phenyl-3,4,6,7-tetrahydro[1,4]diazepino[6,7,1-hi]indol-3-yl) -benzamide] | 1.2 | –
8 | COc1cc2c3c(c1)C(c1ccccc1)=N[C@@H](NC(=O)c1cnc4ccccc4c1)C(=O)N3CC2 [Example 6D, (3R)-Quinoline-3-carboxylic acid (9-methoxy-4-oxo-1-phenyl-3,4,6,7-tetrahydro[1,4]diazepino[6,7,1-hi]indol-3-yl)amide] | 1.9 | –
9 | CC(=O)Nc1ccc(C(=O)N[C@@H]2N=C(c3ccccc3)c3cccc4c3N(CC4)C2=O)cc1 [Example 2O, (3R)-4-Acetamido-N-(4-oxo-1-phenyl-3,4,6,7-tetrahydro[1,4]diazepino[6,7,1-hi]indol-3-yl)-benzamide] | 1.9 | –
10 | O=C(NC1N=C(c2ccccc2)c2cccc3c2N(CC3)C1=O)c1cn2ccccc2n1 (racemic) [Example 1B, (3R,S)-Imidazo[1,2-a]pyridine-2-carboxylic acid N-(4-oxo-1-phenyl-3,4,6,7-tetrahydro1,4]diazepino-[6,7,1-hi]indol-3-yl)amide] | 3.7 | –
11 | COc1cc2c3c(c1)C(c1ccccc1)=NC(NC(=O)c1cc4ccccc4cn1)C(=O)N3CC2 [Example 5, (3R,S)-Isoquinoline-3-carboxylic acid (9-methoxy-4-oxo-1-phenyl-3,4,6,7-tetrahydro[1,4]-diazepino(6,7,1-hilindol-3yl)amide] | 1.2 | –
12 | O=C(N[C@@H]1N=C(c2ccccc2)c2cccc3c2N(CC3)C1=O)c1cccc(F)c1 [Example 2B, (3R)-3-Fluoro-N-(4-oxo-1-phenyl-3,4,6,7-tetrahydro[1,4]diazepino[6,7,1-hi]indol-3-yl)-benzamide] | 1.2 | –
13 | Cn1c(=O)c2[nH]cnc2n(C)c1=O [Theophylline] | – | inhibition of several classes of phosphodiesterases (phosphodiesterase): inhibit several classes of enzymes; undesirable effects [1]: nausea and headaches; therapeutic index ([1]; methylxanthines such as theophylline): low therapeutic index
14 | COc1cc(C(=O)N[C@@H]2N=C(c3ccccc3)c3cccc4c3N(CC4)C2=O)cc(OC)c1OC [Example 2M, (3R)-3,4,5-Trimethoxy-N-(4-oxo-1-phenyl-3,4,6,7-tetrahydro[1,4]diazepino[6,7,1-hi]indol-3-yl)-benzamide] | 1.3 | –
15 | COc1cc2c3c(c1)C(c1ccccc1)=N[C@@H](NC(=O)c1nnc4cc(C)nn4c1C)C(=O)N3CC2 [Example 6G, (3R)-4.7-Dimethylpyrazolo[5,1-c[]1,2,4]-triazine-3-carboxylic acid (9-methoxy-4-oxo-1-phenyl-3,4,6,7-tetrahydro[1,4]diazepino[6,7,1-hi]indol-3-yl)-amide] | 2.2 | –
16 | COc1cc2c3c(c1)C(c1ccccc1)=N[C@@H](NC(=O)c1cccc(Cl)c1)C(=O)N3CC2 [Example 6A, (3R)-3-Chloro-N-(9-methoxy-4-oxo-1-phenyl-3,4,6,7-tetrahydro[1,4]diazepino[6,7,1-hi]indol-3-yl)benzamide] | 2.7 | –
17 | COc1cc2c3c(c1)C(c1ccccc1)=N[C@@H](NC(=O)c1ccncc1)C(=O)N3CC2 [Example 6C, (3R)-N-(9-methoxy-4-oxo-1-phenyl-3,4,6,7-tetrahydro[1,4]diaze-ino[6,7,1-hi]indol-3-yl)isonicotinamide] | 1.6 | –
18 | Cc1cc2nnc(C(=O)N[C@@H]3N=C(c4ccccc4)c4cccc5c4N(CC5)C3=O)c(C)n2n1 [Example 2Y, (3R)-4,7-Dimethyl-pyrazolo[5,1-c][1,2,4]triazine-3-carboxylic acid (4-oxo-1-phenyl-3,4,6,7-tetrahydro[1,4]diazepino[6,7,1-hi]indol-3-yl)amide] | 1.4 | –
19 | COc1cc2c3c(c1)C(c1ccccc1)=N[C@@H](NC(=O)c1ccc(Cl)cc1)C(=O)N3CC2 [Example 6B, (3R)-4-Chloro-N-(9-methoxv-4-oxo-1-phenyl-3,4,6,7-tetrahydro[1,4]diazepino[6,7,1-hi]indol-3-yl)benzamide] | 1.6 | –
20 | O=C(N[C@@H]1N=C(c2ccccc2)c2cccc3c2N(CC3)C1=O)c1cnc2ccccc2c1 [Example 2S, (3R)-Quinoline-3-carboxylic acid (4-oxo-1-phenyl-3,4,6,7-tetrahydro[1,4]diazepino[6,7,1-hi]indol-3-yl)amide] | 3.3 | –
21 | O=C(N[C@@H]1N=C(c2ccccc2)c2cccc3c2N(CC3)C1=O)c1cc2ccccc2cn1 [Example 2V, (3R)-Isocuinoline-3-carboxylic acid (4-oxo-1-phenyl-3,4,6,7-tetrahdro[1,4]diazerino[6,7,1-hi]indol-3-yl)amide] | – | subacute oral toxicity [2]: showed no activity which could be linked with a toxic effect
